Measured values: PubChem BioAssay (NCI)
Values joined by “and” are separate entries in the source; they are usually repeats but may differ in a detail not shown here. Equal entries are not always repeated.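 Interpolation was linear, between the two tested concentrations surrounding the appropriate level; five concentrations were tested over 48 hours in 96-well plates. The concentration for 50% growth inhibition is given as GI50. The concentration for full growth arrest is given as TGI.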

Tests used:
Assay in all cases: inhibition of tumour cell growth, NCI panel, 48 h
[1] = system: ACHN renal
[2] = system: MOLT-4 leukemia
[3] = system: COLO 205 colon
[4] = system: IGROV1 ovarian
[5] = system: SNB-19 CNS
[6] = system: HCT-15 colon
[7] = system: OVCAR-4 ovarian
[8] = system: SNB-75 CNS
[9] = system: HOP-92 NSCLC
[10] = system: RPMI-8226 leukemia

SMILES	GI50 [1]	TGI [1] [µM]	GI50 [2]	TGI [2]	GI50 [3]	TGI [3]	GI50 [4]	TGI [4]	GI50 [5]	TGI [5]	GI50 [6]	TGI [6] [µM]	GI50 [7]	TGI [7]	GI50 [8]	TGI [8]	GI50 [9]	TGI [9]	GI50 [10]	TGI [10] [µM]
Nc1cc2c3ccccc3ccc2c2ccccc12	> 100 µM	> 100	> 100 µM	> 100 µM	> 100 µM	> 100 µM	> 100 µM	> 100 µM	> 100 µM	> 100 µM	3.92 µM	> 100	> 22.5 µM	> 100 µM	> 30.5 µM	> 100 µM	> 100 µM	> 100 µM	> 45.9 µM	> 100
CN1CCN(CCCn2c3c(sc4ncccc43)c(=O)n3nnc(-c4ccccc4)c23)CC1	1.54 µM	3.04	0.889 µM	2.86 µM	4.33 µM	9.07 µM	1.69 µM	4.22 µM	2.48 µM	5.82 µM	1.87 µM	4.3	1.87 µM	3.73 µM	9.85 µM	23.4 µM	9.5 µM	28.4 µM	2.08 µM	5.3
c1ccc(OCC[P+](c2ccccc2)(c2ccccc2)c2ccccc2)cc1	8.47 µM	> 81.9	3.89 µM	27.2 µM	0.549 µM	2.02 µM	0.905 µM	11.8 µM	1.39 µM	15.1 µM	12 µM	> 100	0.66 µM	9.44 µM	0.721 µM	5.99 µM	0.312 µM	3.06 µM	0.187 µM	2.14
COc1ccc(-c2oc(C=Nc3ccccc3)c([N+](=O)[O-])c2-c2ccc(OC)c(OC)c2)cc1OC	–	> 100	–	> 100 µM	–	> 100 µM	–	> 100 µM	–	> 100 µM	–	> 100	–	> 100 µM	–	> 100 µM	–	> 100 µM	–	> 100
Cc1cccc(Nc2ncc(-c3ccccc3)o2)c1	> 25 µM	> 25	> 25 µM	> 25 µM	> 25 µM	> 25 µM	> 25 µM	> 25 µM	> 25 µM	> 25 µM	> 25 µM	> 25	> 25 µM	> 25 µM	> 25 µM	> 25 µM	> 25 µM	> 25 µM	> 25 µM	> 25
C=C1C(=O)O[C@H]2[C@H]1CC/C(COC(=O)NCCc1ccc(Br)cc1)=C\CC[C@@]1(C)O[C@@H]21	1.32 µM	2.78	1.69 µM	4.8 µM	1.82 µM	3.57 µM	1.08 µM	2.59 µM	1.39 µM	2.97 µM	1.01 µM	2.33	1.56 µM	3.29 µM	1.2 µM	2.45 µM	1.28 µM	2.77 µM	0.624 µM	2.89
CC(=O)OCc1cc[c]([Hg][Cl])o1	1.81 µM	3.44	2.07 µM	8.46 µM	1.63 µM	3.29 µM	3.14 µM	10.4 µM	3.08 µM	12 µM	1.62 µM	3.66	12.7 µM	43 µM	12.8 µM	51.4 µM	2.51 µM	6.36 µM	4.69 µM	34.9
COc1cc(/C=C/[N+](=O)[O-])cc(OC)c1	1.76 µM	3.72	2.25 µM	6.33 µM	1.79 µM	3.63 µM	2.83 µM	8.63 µM	8.49 µM	22.1 µM	1.99 µM	6.11	4.87 µM	17.3 µM	3.82 µM	16.7 µM	4.78 µM	20.5 µM	1.85 µM	4.61
CCN1C(=O)N(CC)C2C1NN=c1s/c(=C\c3ccc(Br)cc3)c(=O)n12 (stereo unspecified)	0.249 µM	> 100	0.392 µM	> 100 µM	0.258 µM	–	0.275 µM	> 82.2 µM	0.346 µM	> 100 µM	0.0598 µM	> 100	0.388 µM	> 100 µM	0.0808 µM	> 100 µM	0.0365 µM	> 63.7 µM	0.269 µM	–
NC(=O)C1CCCN1Cc1ccc2c(c1)OCO2 (stereo unspecified)	–	> 100	–	> 100 µM	–	> 100 µM	–	> 100 µM	–	> 100 µM	–	> 100	–	> 100 µM	–	> 100 µM	–	> 100 µM	–	> 100
O=C1C2=C(c3ccccc31)C(c1ccc([N+](=O)[O-])cc1)NC(=S)N2 (stereo unspecified)	–	> 100	–	> 100 µM	–	> 100 µM	–	> 100 µM	–	> 100 µM	–	> 100	–	> 100 µM	–	98.6 µM	–	> 100 µM	–	> 100
CC1(/C=C/c2ccc(-c3ccccc3)cc2)CCn2cnc3ncnc(c32)N1O (stereo unspecified)	0.281 µM	14.2	0.347 µM	27.9 µM	0.326 µM	32.8 µM	0.337 µM	14.1 µM	0.526 µM	> 72.6 µM	0.146 µM	33.5	0.298 µM	> 50.2 µM	0.387 µM	14.5 µM	3.72 µM	65.6 µM	0.467 µM	22.7
Clc1ccc(Nc2nnc(COc3ccccc3)c3ccccc23)cc1	2.35 µM	25	1.06 µM	6.7 µM	0.456 µM	4.38 µM	1.14 µM	6.37 µM	3.2 µM	12 µM	2.05 µM	6.75	2.09 µM	25 µM	0.498 µM	6.65 µM	0.331 µM	3.09 µM	1.37 µM	6.96
O=C(Nc1ccc([N+](=O)[O-])cc1Cl)c1cc(Cl)ccc1O	0.155 µM and 0.258 µM	19.4	0.121 µM and 0.273 µM	0.374 µM and 1.03 µM	1.34 µM and 1.52 µM	3.26 µM and 3.22 µM	0.229 µM and 0.294 µM	18.7 µM and 8.49 µM	0.164 µM and 0.248 µM	50 µM and > 100 µM	0.154 µM and 0.26 µM	3.2	0.156 µM and 0.259 µM	13.4 µM and > 100 µM	0.155 µM and 0.211 µM	2.49 µM and 0.864 µM	0.0194 µM and 0.0591 µM	0.1 µM and 0.261 µM	0.0502 µM and 0.176 µM	0.287
Cc1cc(C(=O)NOCCO)c(Nc2ccc(I)cc2F)n(C)c1=O	–	> 100	> 100 µM	> 100 µM	< 0.01 µM	> 100 µM	0.00909 µM and 0.0178 µM	> 100 µM	6.08 µM	> 100 µM	> 3.01 µM and 2.64 µM	> 100	–	> 100 µM	> 10 µM and 17.1 µM	> 100 µM	0.00585 µM and 0.0235 µM	0.2 µM and 1.04 µM	> 10 µM and 37.9 µM	> 100
O=C1NC(=O)/C(=C/c2ccc3nccc(-c4ccncc4)c3c2)S1	0.469 µM	8.39	0.645 µM	9.91 µM	0.454 µM	3.67 µM	0.117 µM	0.612 µM	0.429 µM	5.93 µM	0.292 µM	> 5.08	0.503 µM	5.89 µM	0.0518 µM	0.448 µM	0.0806 µM	0.494 µM	1.19 µM	6.75
CCCCCCCC(=O)[O-].N.N.N.N.N.[Co+3].[O-][Cl+3]([O-])([O-])[O-]	> 100 µM	> 100	53.5 µM	> 100 µM	> 100 µM	> 100 µM	> 100 µM	> 100 µM	> 100 µM	> 100 µM	> 100 µM	> 100	> 100 µM	> 100 µM	> 100 µM	> 100 µM	> 100 µM	> 100 µM	> 100 µM	> 100
Oc1ccc(Cl)cc1N=Nc1c(O)ccc2ccccc12	–	> 100	–	> 100 µM	–	> 100 µM	–	> 100 µM	–	> 100 µM	–	> 100	–	> 100 µM	–	> 100 µM	–	> 100 µM	–	> 100
NS(=O)(=O)c1ccc(NC(=O)Nc2cccc3ccccc23)cc1	–	> 100	–	> 100 µM	–	> 100 µM	–	> 100 µM	–	44.8 µM	–	> 100	–	> 100 µM	–	57.7 µM	–	> 100 µM	–	> 100
CC1=NN(c2ccccc2)C(=O)C1N=Nc1ccc(Br)cc1C (stereo unspecified)	–	> 100	–	> 100 µM	–	> 100 µM	–	> 100 µM	–	> 100 µM	–	> 100	–	> 100 µM	–	48.3 µM	–	> 100 µM	–	> 100
C=C1CC2(CC(c3ccccc3C)OC(c3ccccc3C)C2)OC1=O (stereo unspecified)	–	6.06	–	21.4 µM	–	3.68 µM	–	3.25 µM	–	30.8 µM	–	3.86	–	5.49 µM	–	11.6 µM	–	3.18 µM	–	4.12
OC(CBr)C(O)C(O)C(O)CBr (stereo unspecified)	–	> 100	10.8 µM	> 30.4 µM	–	> 100 µM	49.4 µM and > 100 µM	> 100 µM	36 µM and > 100 µM	> 100 µM	> 100 µM	> 100	–	> 100 µM	13 µM and 51 µM	68.4 µM and > 100 µM	35.8 µM and > 86.8 µM	> 100 µM	–	> 100
O=S(=O)(O)c1ccc([Se][Se]c2ccc(S(=O)(=O)O)cc2)cc1	–	> 100	–	> 100 µM	–	> 100 µM	–	> 100 µM	–	> 100 µM	–	> 100	–	> 100 µM	–	> 100 µM	–	> 100 µM	–	> 100
C[C@H]1O[C@@H](O[C@H]2[C@@H](O)C[C@H](O[C@H]3[C@@H](O)C[C@H](O[C@H]4CC[C@]5(C)C6CC[C@]7(C)[C@@H](C8=CC(=O)OC8)CC[C@]7(O)C6CC[C@@H]5C4)O[C@@H]3C)O[C@@H]2C)C[C@H](O)[C@@H]1O (stereo partly specified)	0.0126 µM	0.0391	0.0113 µM	0.0341 µM	0.0309 µM	0.102 µM	0.0261 µM	2.22 µM	0.03 µM	0.0948 µM	0.0257 µM	0.0982	–	0.0732 µM	0.0182 µM	0.102 µM	0.0354 µM	0.149 µM	0.0194 µM	0.135
COc1cccc(/C=C/C(=O)c2cc3c(N)c(C(=O)Nc4ccccc4)sc3nc2C)c1	0.971 µM	1.86	1.59 µM	> 50 µM	1.54 µM	4.71 µM	0.954 µM	2 µM	1.52 µM	5.58 µM	1.16 µM	3.37	1.78 µM	> 50 µM	0.889 µM	> 50 µM	1.08 µM	4.24 µM	1.18 µM	2.54
Cc1ccc(O)c(C(=O)/C=C/c2ccccc2)c1	–	> 100	–	> 100 µM	–	> 100 µM	–	> 100 µM	–	> 100 µM	–	> 100	–	> 100 µM	–	> 100 µM	–	> 100 µM	–	> 100
N/C(=N/O)NOCCC(N)C(=O)O (stereo unspecified)	> 100 µM	> 100	> 100 µM	> 100 µM	> 100 µM	> 100 µM	> 100 µM	> 100 µM	> 100 µM	> 100 µM	> 100 µM	> 100	> 100 µM	> 100 µM	> 100 µM	> 100 µM	> 100 µM	> 100 µM	> 100 µM	> 100
COc1cc(N2CCN(C(C)C)CC2)ccc1Nc1nc(Nc2ccc(F)cc2C(N)=O)c2cc[nH]c2n1	0.502 µM	5.2	5.24 µM	15.4 µM	0.0241 µM	0.126 µM	0.392 µM	6.94 µM	3.98 µM	11.4 µM	0.387 µM	8.16	2.98 µM	7.04 µM	3.04 µM	6.32 µM	0.0148 µM	0.687 µM	3.69 µM	12.5
O=C(C#Cc1ccccc1)N1CCCCC1	–	> 100	–	> 100 µM	–	> 100 µM	–	> 100 µM	–	> 100 µM	–	> 100	–	> 100 µM	–	> 100 µM	–	> 100 µM	–	> 100
